Data from US20060160851A1, “Substituted piperidine carbamates” (Novo Nordisk A/S, priority 2003, published 2006).

Biological target: T1, hormone sensitive lipase (Homo sapiens, UniProt Q05469)
T1 construct: made in house
T1 sequence (Q05469 1-1076): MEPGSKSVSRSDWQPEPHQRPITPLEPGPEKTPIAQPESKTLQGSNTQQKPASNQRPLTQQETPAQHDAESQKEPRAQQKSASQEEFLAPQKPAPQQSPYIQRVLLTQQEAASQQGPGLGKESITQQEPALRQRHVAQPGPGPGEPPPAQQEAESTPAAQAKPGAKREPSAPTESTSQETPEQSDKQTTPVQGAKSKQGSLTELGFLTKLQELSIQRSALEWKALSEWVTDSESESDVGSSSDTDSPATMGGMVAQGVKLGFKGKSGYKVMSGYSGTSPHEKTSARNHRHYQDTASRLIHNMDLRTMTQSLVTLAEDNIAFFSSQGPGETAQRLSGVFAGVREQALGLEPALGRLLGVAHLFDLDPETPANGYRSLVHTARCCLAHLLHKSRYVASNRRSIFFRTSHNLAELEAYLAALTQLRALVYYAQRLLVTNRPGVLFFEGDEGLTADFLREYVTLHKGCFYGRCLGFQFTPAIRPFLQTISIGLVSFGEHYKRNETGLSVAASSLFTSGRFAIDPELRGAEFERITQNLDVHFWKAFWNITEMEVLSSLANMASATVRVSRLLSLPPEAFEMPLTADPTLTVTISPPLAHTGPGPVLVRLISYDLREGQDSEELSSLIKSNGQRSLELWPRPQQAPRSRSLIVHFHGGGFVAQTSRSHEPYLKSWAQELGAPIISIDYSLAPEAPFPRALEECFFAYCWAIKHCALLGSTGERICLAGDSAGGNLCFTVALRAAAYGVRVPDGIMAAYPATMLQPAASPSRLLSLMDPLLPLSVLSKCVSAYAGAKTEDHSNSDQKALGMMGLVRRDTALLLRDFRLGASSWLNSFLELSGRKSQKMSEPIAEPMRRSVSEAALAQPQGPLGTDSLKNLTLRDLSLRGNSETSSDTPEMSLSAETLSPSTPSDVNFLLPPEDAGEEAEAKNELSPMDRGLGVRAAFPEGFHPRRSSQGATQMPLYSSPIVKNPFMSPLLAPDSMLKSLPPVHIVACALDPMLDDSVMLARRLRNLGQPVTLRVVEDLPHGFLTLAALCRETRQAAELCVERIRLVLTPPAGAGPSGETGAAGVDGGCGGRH
Assay: Assay 3190.1: percent inhibition of hormone sensitive lipase by compound at 10 μM (fluorochrome-labeled triacylglyceride emulsion, HSL_FL)
Format: biochemical
Conditions: 10 μM sample concentration, % activity relative to non-inhibited sample (no compound), 30 min preincubation at 25° C., 120 min incubation at 37° C.; for activity at 10 µM: read-out: Test 3190.1 HSL_FL % ACTIVITY
From the text: The Hormone-sensitive lipase was provided by Dr. Cecilia Holm, from Lund University Sweden or produced and purified by Novo Nordisk (NN) using the reagents and protocols used by Dr. Holm. The substrates used are: ^3H-labeled triolein (TO) from Amersham, Buckinghamshire, U.K. cat No. TRA191; 5-20 Ci/mmol dissolved in toluene, triolein (Sigma, Cat. No. T-1740), fluorochrome-labeled triacylglyceride (cis-octadec-9-enoic acid 2-[12-(7-nitrobenzo[1,2,5]oxadiazol-4-ylamino)dodecanoyloxy]-1-cis-octadec-9-enoyloxymethyl-ethyl ester) prepared by Novo Nordisk (NN) by conventional methods, and 1,3-(di[^3H]-stearin), 2-(PEG-Biotin)glycerol prepared in collaboration with Amersham Pharmacia Biotech, UK and described in WO 01/073442. Phosphatidyl choline (PC) and phosphatidyl inositol (PI) are from Sigma (St Luis Mo. cat. Nos. P-3556 and P-5954 respectively). All other reagents are of commercial grade and obtained from various commercial sources.
3190.1: Assay for determination of percent inhibition of hormone sensitive lipase by compound at 10 μM sample concentration.
A lipid emulsion with fluorochrome-labeled triacylglyceride and phospholipid is used as substrate with a standard concentration of highly purified HSL (12 μg/mL initial concentration corresponding to 600 ng/mL final concentration). BSA is added as product acceptor receptor. The transfer of the fluorochrome from the lipid phase to the water (BSA) phase changes the fluorescent properties of the fluorochrome. The changes can be monitored on a fluorimeter with an excitation wavelength of 450 nm and an emission wavelength of 545 nm.
Compound and HSL (20 μL compound, 10 μL enzyme and 70 μL PED-BSA buffer) is pre-incubated for 30 min at 25° C. before addition of substrate (100 μL). Amount of formed product is measured after 120 min incubation at 37° C.
Results are given as percent activity relative to a non-inhibited sample (no compound).

| activity at 10 µM | Compound | Test 3190.1 HSL_FL % ACTIVITY |
| --- | --- | --- |
| 5% | O=C(Oc1ccc(Oc2ccc(C(F)(F)F)cn2)cc1)N1CCC(Sc2nccn2-c2cccnc2)CC1 [Example 3, 4-(1-Pyridin-3-yl-1H-imidazol-2-ylsulfanyl)-piperidine-1-carboxylic acid 4-(5-trifluoromethyl-pyridin-2-yloxy)-phenyl ester] |  |
| 1% | O=C(Oc1ccc(Oc2ccc(C(F)(F)F)cn2)cc1)N1CCC(Oc2cccnc2)CC1 [Example 10, 4-(Pyridin-3-yloxy)-piperidine-1-carboxylic acid 4-(5-trifluoromethyl-pyridin-2-yloxy)-phenyl ester] |  |
| 14% | O=C(O)c1ccc(-c2ccc(OC3CCN(C(=O)Oc4ccc(Oc5ccc(C(F)(F)F)cn5)cc4)CC3)cc2)cc1 [Example 35, 4-(4′-Carboxy-biphenyl-4-yloxy)-piperidine-1-carboxylic acid 4-(5-trifluoromethyl-pyridin-2-yloxy)-phenyl ester] |  |
| 8% | O=C(O)c1coc(-c2ccc(OC3CCN(C(=O)Oc4ccc(Oc5ccc(C(F)(F)F)cn5)cc4)CC3)cc2)n1 [Example 36, 4-[4-(4-Carboxy-oxazol-2-yl)-phenoxy]-piperidine-1-carboxylic acid 4-(5-trifluoromethyl-pyridin-2-yloxy)-phenyl ester] |  |
| 5% | O=C(O)c1ccc(OC2CCN(C(=O)Oc3ccc(Oc4ccc(C(F)(F)F)cn4)cc3)CC2)cc1 [Example 39, 4-(4-Carboxy-phenoxy)-piperidine-1-carboxylic acid 4-(5-trifluoromethyl-pyridin-2-yloxy)-phenyl ester] |  |
| 5% | O=C(O)Cc1ccc(OCC2CCN(C(=O)Oc3ccc(Oc4ccc(C(F)(F)F)cn4)cc3)CC2)cc1 [Example 44, 4-(4-Carboxymethyl-phenoxymethyl)-piperidine-1-carboxylic acid 4-(5-trifluoromethyl-pyridin-2-yloxy)-phenyl ester] |  |
| 1% | Cc1ccc(Cc2ccc(OC(=O)N3CCC(On4cccn4)CC3)cc2)nc1 [Example 48, 4-(Pyrazol-1-yloxy)-piperidine-1-carboxylic acid 4-(5-methyl-pyridin-2-ylmethyl)-phenyl ester] |  |
| 3% | Cc1ccc(Cc2ccc(OC(=O)N3CCC(Oc4ccccc4)CC3)cc2)cn1 [Example 50, 4-Phenoxy-piperidine-1-carboxylic acid 4-(6-methyl-pyridin-3-ylmethyl)-phenyl ester] |  |
| 1% | C=CCOC(=O)Cc1ccc(OC2CCN(C(=O)Oc3ccc(CCN4C(=O)CC(C)(C)CC4=O)cc3)CC2)cc1 [Example 55, 4-(4-Allyloxycarbonylmethyl-phenoxy)-piperidine-1-carboxylic acid 4-[2-(4,4-dimethyl-2,6-dioxo-piperidin-1-yl)-ethyl]-phenyl ester] |  |
| 4% | O=C(Oc1ccc(Cc2ccc(C(F)(F)F)cc2)cc1)N1CCC(Cc2ncccn2)CC1 [Example 67, 4-Pyrimidin-2-ylmethyl-piperidine-1-carboxylic acid 4-(4-trifluoromethyl-benzyl)-phenyl ester] |  |
| 9% | Cc1ccc(CC2CCN(C(=O)Oc3ccc(Cc4ccc(C(F)(F)F)cc4)cc3)CC2)nc1 [Example 71, 4-(5-Methyl-pyridin-2-ylmethyl)-piperidine-1-carboxylic acid 4-(4-trifluoromethyl-benzyl)-phenyl ester] |  |
| 3% | O=C(O)Cc1ccc(CC2CCN(C(=O)Oc3ccc(Cc4ccc(C(F)(F)F)cc4)cc3)CC2)cc1 [Example 74, 4-(4-Carboxymethyl-benzyl)-piperidine-1-carboxylic acid 4-(4-trifluoromethyl-benzyl)-phenyl ester] |  |
| 5% | O=C(O)Cc1ccc(OC2CCN(C(=O)Oc3ccc(C(=O)NCCc4ccccc4)cc3)CC2)cc1 [Example 85, 4-(4-Carboxymethyl-phenoxy)-piperidine-1-carboxylic acid 4-phenethylcarbamoyl-phenyl ester] |  |

Continued, compound first:

| Compound | activity at 10 µM | Test 3190.1 HSL_FL % ACTIVITY |
| --- | --- | --- |
| 4-(4-Carboxymethyl-phenoxy)-piperidine-1-carboxylic acid 4-(2-phenoxy-ethyl)-phenyl ester [Example 92] |  | 3% |
| 4-(4-Carboxymethyl-phenoxy)-piperidine-1-carboxylic acid 4-[2-(1-methyl-1H-tetrazol-5-yloxy)-ethyl]-phenyl ester [Example 94] |  | 6% |
| CN(CCC1CCN(C(=O)Oc2ccc(Oc3ccc(C(F)(F)F)cn3)cc2)CC1)Cc1ccccc1 [Example 1, 4-[2-(Benzyl-methyl-amino)-ethyl]-piperidine-1-carboxylic acid 4-(5-trifluoromethyl-pyridin-2-yloxy)-phenyl ester] | 1% |  |
| O=C(Oc1ccc(Oc2ccc(C(F)(F)F)cn2)cc1)N1CCC(On2nccc2Sc2ccccc2)CC1 [Example 12, 4-(5-Phenylsulfanyl-pyrazol-1-yloxy)-piperidine-1-carboxylic acid 4-(5-trifluoromethyl-pyridin-2-yloxy)-phenyl ester] | 11% |  |
| O=C(Oc1ccc(Oc2ccc(C(F)(F)F)cn2)cc1)N1CCC(Oc2ccc(N3CCN(C4CCCC4)CC3)cc2)CC1 [Example 22, 4-[4-(4-Cyclopentyl-piperazin-1-yl)-phenoxy]-piperidine-1-carboxylic acid 4-(5-trifluoromethyl-pyridin-2-yloxy)-phenyl ester] | 4% |  |
| CCOC(=O)CCc1ccc(OC2CCN(C(=O)Oc3ccc(Oc4ccc(C(F)(F)F)cn4)cc3)CC2)cc1 [Example 31, -[4-(2-Ethoxycarbonyl-ethyl)-phenoxy]-piperidine-1-carboxylic acid 4-(5-trifluoromethyl-pyridin-2-yloxy)-phenyl ester] |  | 0% |
| O=C(O)CCc1ccc(OC2CCN(C(=O)Oc3ccc(Oc4ccc(C(F)(F)F)cn4)cc3)CC2)cc1 [Example 37, 4-[4-(2-Carboxy-ethyl)-phenoxy]-piperidine-1-carboxylic acid 4-(5-trifluoromethyl-pyridin-2-yloxy)-phenyl ester] | 1% |  |
| CC1(C)CC(=O)N(CCc2ccc(OC(=O)N3CCC(Oc4ccc(C(=O)O)cc4)CC3)cc2)C(=O)C1 [Example 59, 4-(4-Carboxy-phenoxy)-piperidine-1-carboxylic acid 4-[2-(4,4-dimethyl-2,6-dioxo-piperidin-1-yl)-ethyl]-phenyl ester] | 31% |  |
| O=C(Nc1ccc(OC(=O)N2CCC(On3cccn3)CC2)nc1)c1ccccc1 [Example 61, 4-(Pyrazol-1-yloxy)-piperidine-1-carboxylic acid 5-benzoylamino-pyridin-2-yl ester] | 15% |  |
| O=C(Oc1ccc(Oc2ccc(C(F)(F)F)cn2)cc1)N1CCC(Cc2ccsc2)CC1 [Example 68, 4-Thiophen-3-ylmethyl-piperidine-1-carboxylic acid 4-(5-trifluoromethyl-pyridin-2-yloxy)-phenyl ester] | 3% |  |
| O=C(O)Cc1ccc(OC2CCN(C(=O)Oc3ccc(C(=O)NCC4CCCCC4)cc3)CC2)cc1 [Example 88, 4-(4-Carboxymethyl-phenoxy)-piperidine-1-carboxylic acid 4-(cyclohexylmethyl-carbamoyl)-phenyl ester] | 3% |  |
